Experimental data: US20230203043A1, “NOVEL IMIDAZOPYRAZINE DERIVATIVES” (Hoffmann-La Roche Inc., priority 2020, published 2023)
Counter-ions that a name gives are not always drawn.

tested on: Acinetobacter baumannii ATCC17961; test: Antimicrobial susceptibility testing: 90% growth inhibitory concentration (IC90) determination in Iso-Sensitest broth, OD600 growth; format: cell-based; settings: Acinetobacter baumannii, ATCC17961, 16 h, read-out: A. baumannii ATCC 17961 IC90 (uM), strain ATCC 17961, OD600 growth over 16 h
Method in brief: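 Serial twofold dilution, 10 points, e.g. 50–0.097 μM final; ~5×10^(5) CFU/ml; 35±2° C, 16 h; kinetic OD600 every 20 min; IC90 from log-phase inhibition.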

SMILES	IC90 [µM]
CCc1cc(Nc2nccn3c(-c4cn(Cc5nccn5C)nc4C(F)(F)F)cnc23)ccc1C(=O)NCCCNCCCCNCCCN [Example 84, N-[3-[4-(3-aminopropylamino)butylamino]propyl]-2-ethyl-4-[[3-[1-[(1-methylimidazol-2-yl)methyl]-3-(trifluoromethyl)pyrazol-4-yl]imidazo[1,2-a]pyrazin-8-yl]amino]benzamide hydrochloride]	2.98
CC#CCn1cc(-c2cnc3c(Nc4ccc(C(=O)NCC(=O)NCCN)c(Cl)c4)nccn23)c(C(F)(F)F)n1 [Example 89, N-[2-(2-aminoethylamino)-2-oxoethyl]-4-[[3-[1-but-2-ynyl-3-(trifluoromethyl)pyrazol-4-yl]imidazo[1,2-a]pyrazin-8-yl]amino]-2-chlorobenzamide formate]	0.573
C[C@@H](NC(=O)c1ccc(Nc2nccn3c(-c4c[nH]nc4C(F)(F)F)cnc23)cc1Cl)C(=O)N1CCC(N)CC1 [Example 90, N-[(2R)-1-(4-aminopiperidin-1-yl)-1-oxopropan-2-yl]-2-chloro-4-[[3-[3-(trifluoromethyl)-1H-pyrazol-4-yl]imidazo[1,2-a]pyrazin-8-yl]amino]benzamide formate]	0.643
C[C@@H](NC(=O)c1ccc(Nc2nccn3c(-c4c[nH]nc4C(F)(F)F)cnc23)cc1Cl)C(=O)N1CCNCC1 [Example 91, 2-chloro-N-[(2R)-1-oxo-1-piperazin-1-ylpropan-2-yl]-4-[[3-[3-(trifluoromethyl)-1H-pyrazol-4-yl]imidazo[1,2-a]pyrazin-8-yl]amino]benzamide formate]	0.645
C[C@@H](NC(=O)c1ccc(Nc2nccn3c(-c4c[nH]nc4C(F)(F)F)cnc23)cc1Cl)C(=O)NC1CC(N)C1 (stereo partly drawn) [Example 92, N-[(2R)-1-[(3-aminocyclobutyl)amino]-1-oxopropan-2-yl]-2-chloro-4-[[3-[3-(trifluoromethyl)-1H-pyrazol-4-yl]imidazo[1,2-a]pyrazin-8-yl]amino]benzamide formate]	0.947
C[C@@H](NC(=O)c1ccc(Nc2nccn3c(-c4c[nH]nc4C(F)(F)F)cnc23)cc1Cl)C(=O)N[C@@H]1CCNC1 [Example 93, 2-chloro-N-[(2R)-1-oxo-1-[[(3R)-pyrrolidin-3-yl]amino]propan-2-yl]-4-[[3-[3-(trifluoromethyl)-1H-pyrazol-4-yl]imidazo[1,2-a]pyrazin-8-yl]amino]benzamide formate]	1.02
C[C@@H](NC(=O)c1ccc(Nc2nccn3c(-c4c[nH]nc4C(F)(F)F)cnc23)cc1Cl)C(=O)N1CC[C@H](N)C1 [Example 94, N-[(2R)-1-[(3S)-3-aminopyrrolidin-1-yl]-1-oxopropan-2-yl]-2-chloro-4-[[3-[3-(trifluoromethyl)-1H-pyrazol-4-yl]imidazo[1,2-a]pyrazin-8-yl]amino]benzamide formate]	1.24

same assay, conditions: Acinetobacter baumannii, ATCC17961, 16 h, strain ATCC 17961, OD600 growth over 16 h, read-out: A. baumannii ATCC 17961 IC90

IC90 [µM]	SMILES
0.433	C=CCn1cc(-c2cnc3c(Nc4cc(C)c(C(=O)N5CCNCC5)c(F)c4)nccn23)c(C(F)(F)F)n1 [Example 69, [2-fluoro-6-methyl-4-[[3-[1-prop-2-enyl-3-(trifluoromethyl)pyrazol-4-yl]imidazo[1,2-a]pyrazin-8-yl]amino]phenyl]-piperazin-1-ylmethanone]
0.489	CCc1cc(Nc2nccn3c(-c4cn(CC(F)F)nc4C(F)(F)F)cnc23)ccc1C(=O)N1CCN(C(=O)C2CCNCC2)CC1 [Example 70, [4-[[3-[1-(2,2-difluoroethyl)-3-(trifluoromethyl)pyrazol-4-yl]imidazo[1,2-a]pyrazin-8-yl]amino]-2-ethylphenyl]-[4-(piperidine-4-carbonyl)piperazin-1-yl]methanone]
0.593	CCc1cc(Nc2nccn3c(-c4cn(CCF)nc4C(F)(F)F)cnc23)ccc1C(=O)N1CCN(C(=O)C2CCNCC2)CC1 [Example 71, [2-ethyl-4-[[3-[1-(2-fluoroethyl)-3-(trifluoromethyl)pyrazol-4-yl]imidazo[1,2-a]pyrazin-8-yl]amino]phenyl]-[4-(piperidine-4-carbonyl)piperazin-1-yl]methanone]
0.599	C#CCNCCCNC(=O)c1c(C)cc(Nc2nccn3c(-c4cn(CC#C)nc4C(F)(F)F)cnc23)cc1F [Example 72, 2-fluoro-6-methyl-N-[3-(prop-2-ynylamino)propyl]-4-[[3-[1-prop-2-ynyl-3-(trifluoromethyl)pyrazol-4-yl]imidazo[1,2-a]pyrazin-8-yl]amino]benzamide]
0.687	Cc1cc(Nc2nccn3c(-c4cn(CCF)nc4C(F)(F)F)cnc23)cc(F)c1C(=O)N1CCNCC1 [Example 73, [2-fluoro-4-[[3-[1-(2-fluoroethyl)-3-(trifluoromethyl)pyrazol-4-yl]imidazo[1,2-a]pyrazin-8-yl]amino]-6-methylphenyl]-piperazin-1-ylmethanone]
1.7	Cc1cc(Nc2nccn3c(-c4cn(CC#N)nc4C(F)(F)F)cnc23)cc(F)c1C(=O)NCCOCCN [Example 75, N-[2-(2-aminoethoxy)ethyl]-4-[[3-[1-(cyanomethyl)-3-(trifluoromethyl)pyrazol-4-yl]imidazo[1,2-a]pyrazin-8-yl]amino]-2-fluoro-6-methylbenzamide]
3.29	Cc1cc(Nc2nccn3c(-c4cn(CC#N)nc4C(F)(F)F)cnc23)cc(F)c1C(=O)N1CCNCC1 [Example 77, 2-[4-[8-[3-fluoro-5-methyl-4-(piperazine-1-carbonyl)anilino]imidazo[1,2-a]pyrazin-3-yl]-3-(trifluoromethyl)pyrazol-1-yl]acetonitrile]
0.161	NCC(=O)N1CCN(C(=O)c2ccc(Nc3nccn4c(-c5cn(C(F)F)nc5C(F)(F)F)cnc34)cc2Cl)CC1 [Example 78, 2-amino-1-[4-[2-chloro-4-[[3-[1-(difluoromethyl)-3-(trifluoromethyl)pyrazol-4-yl]imidazo[1,2-a]pyrazin-8-yl]amino]benzoyl]piperazin-1-yl]ethanone]
0.222	O=C(c1ccc(Nc2nccn3c(-c4cn(C(F)F)nc4C(F)(F)F)cnc23)cc1Cl)N1CC2(CNC2)C1 [Example 79, [2-chloro-4-[[3-[1-(difluoromethyl)-3-(trifluoromethyl)pyrazol-4-yl]imidazo[1,2-a]pyrazin-8-yl]amino]phenyl]-(2,6-diazaspiro[3.3]heptan-2-yl)methanone]
0.737	Cc1cc(Nc2nccn3c(-c4c[nH]nc4C(F)(F)F)cnc23)cc(F)c1C(=O)NCCOCCN [Example 80, N-[2-(2-aminoethoxy)ethyl]-2-fluoro-6-methyl-4-[[3-[3-(trifluoromethyl)-1H-pyrazol-4-yl]imidazo[1,2-a]pyrazin-8-yl]amino]benzamide]
1.06	Cc1cc(Nc2nccn3c(-c4c[nH]nc4C(F)(F)F)cnc23)cc(F)c1C(=O)NCCCCCN [Example 81, N-(5-aminopentyl)-2-fluoro-6-methyl-4-[[3-[3-(trifluoromethyl)-1H-pyrazol-4-yl]imidazo[1,2-a]pyrazin-8-yl]amino]benzamide]
1.15	CCc1cc(Nc2nccn3c(-c4cn(Cc5csc(C)n5)nc4C(F)(F)F)cnc23)ccc1C(=O)NCCCNCCCCNCCCN [Example 82, N-[3-[4-(3-aminopropylamino)butylamino]propyl]-2-ethyl-4-[[3-[1-[(2-methyl-1,3-thiazol-4-yl)methyl]-3-(trifluoromethyl)pyrazol-4-yl]imidazo[1,2-a]pyrazin-8 yl]amino]benzamide hydrochloride]
2.46	Cc1cc(Nc2nccn3c(-c4c[nH]nc4C(F)(F)F)cnc23)cc(F)c1C(=O)N[C@H](C)CN [Example 83, N-[(2R)-1-aminopropan-2-yl]-2-fluoro-6-methyl-4-[[3-[3-(trifluoromethyl)-1H-pyrazol-4-yl]imidazo[1,2-a]pyrazin-8-yl]amino]benzamide]
3.26	C#CCNCCCNC(=O)c1c(C)cc(Nc2nccn3c(-c4c[nH]nc4C(F)(F)F)cnc23)cc1F [Example 85, 2-fluoro-6-methyl-N-[3-(prop-2-ynylamino)propyl]-4-[[3-[3-(trifluoromethyl)-1H-pyrazol-4-yl]imidazo[1,2-a]pyrazin-8-yl]amino]benzamide]
3.38	Cc1cc(Nc2nccn3c(-c4c[nH]nc4C(F)(F)F)cnc23)cc(F)c1C(=O)N1CCNCC1 [Example 86, [2-fluoro-6-methyl-4-[[3-[3-(trifluoromethyl)-1H-pyrazol-4-yl]imidazo[1,2-a]pyrazin-8-yl]amino]phenyl]-piperazin-1-ylmethanone]
0.359	NC12CC(NC(=O)c3ccc(Nc4nccn5c(-c6cn(CC(F)F)nc6C(F)(F)F)cnc45)cc3Cl)(C1)C2 [Example 87, N-(3-amino-1-bicyclo[1.1.1]pentanyl)-2-chloro-4-[[3-[1-(2,2-difluoroethyl)-3-(trifluoromethyl)pyrazol-4-yl]imidazo[1,2-a]pyrazin-8-yl]amino]benzamide]
0.431	N#CCn1cc(-c2cnc3c(Nc4ccc(C(=O)NC56CC(N)(C5)C6)c(Cl)c4)nccn23)c(C(F)(F)F)n1 [Example 88, N-(3-amino-1-bicyclo[1.1.1]pentanyl)-2-chloro-4-[[3-[1-(cyanomethyl)-3-(trifluoromethyl)pyrazol-4-yl]imidazo[1,2-a]pyrazin-8-yl]amino]benzamide]

same assay, conditions: strain ATCC 17961, OD600 growth over 16 h, read-out: A. baumannii ATCC 17961 IC90

SMILES	IC90 [µM]
C#CCNCCCNC(=O)c1c(C)cc(Nc2nccn3c(-c4cn(CCF)nc4C(F)(F)F)cnc23)cc1F [Example 74, 2-fluoro-4-[[3-[1-(2-fluoroethyl)-3-(trifluoromethyl)pyrazol-4-yl]imidazo[1,2-a]pyrazin-8-yl]amino]-6-methyl-N-[3-(prop-2-ynylamino)propyl] benzamide]	0.781
C#CCNCCCNC(=O)c1c(C)cc(Nc2nccn3c(-c4cn(CC#N)nc4C(F)(F)F)cnc23)cc1F [Example 76, 4-[[3-[1-(cyanomethyl)-3-(trifluoromethyl)pyrazol-4-yl]imidazo[1,2-a]pyrazin-8-yl]amino]-2-fluoro-6-methyl-N-[3-(prop-2-ynylamino)propyl] benzamide]	2.09
